Assay results reported in patent publication US8614240B2, “Benzoxazole derivatives having inhibitory activity against interleukin-6, preparation method thereof, and pharmaceutical composition containing the same” (EWHA University-Industry Collaboration Foundation, priority 2010, dated 2013).

Columns and labels:
[1] = tested on: IL-6 induced ERK phosphorylation; test: Test for inhibitory activity against ERK phosphorylation induced by IL-6 (Western blot, HepG2); format: cell-based, human; settings: HepG2, 30 μg/ml (FIG. 5)
Description: HepG2 cell was divisionally inoculated in 6-well plate, and then starved for 18 hours.
The starved cells were treated with the samples for one hour, and then stimulated with IL-6 or LIF (Upstate Biotechnology, USA) for 10 minutes. The specimen was treated with 5× cell lysis buffer (Promega) sometimes with vortexing under ice for 30 minutes. The cell lysate obtained as described under B in Experiment 1 (3) was dissolved in 8% SDS-PAGE gel, and transferred to the nitrocellulose membrane. This membrane was blocked with Tris-buffered solution (50 mM Tris-HCl (pH 7.4), 150 mM NaCl, 0.1% Tween 20) containing 5% non-fat dry milk at 4° C. Then, it was incubated together with an appropriate primary antibody (ERK) present in Tris-buffered solution (50 mM Tris-HCl (pH 7.4), 150 mM NaCl, 0.1% Tween 20) containing 5% non-fat dry milk, at room temperature for 1-2 hours. This membrane was washed five times with TBS buffer solution for 10 minutes, and incubated with 1:6000 diluted horseradish peroxidase-conjugated secondary antibodies for one hour. The membrane was washed 10 times with TBS buffer solution, and then mixed and incubated with the 1:1 mixture of HRP Substrate Luminol Reagent and HRP Substrate Peroxide Solution as ELC reagent (Millipore Corp. Ma USA). The chemiluminescent signals were visualized with X-ray film.

C57BL/6 female mice = test: In vivo test of toxicity of the compounds (body weight, appearance)
Description: In the animal experiments, C57BL/6 female mice (control group 4 mice, test group (dose group) 4 mice) obtained from Central Lab. Animal Inc. were used. The experimental animals were acclimated by breeding them at the place established with temperature 23 ±3° C., relative humidity 50 ±10%, lighting time 12 hours (6 a.m.-6 p.m.), number of ventilation 10-20 times/hour, and illuminance 150-300 Lux, for one week. All the testers who evaluated the activity in animals worn high-pressure steam sterilized (121° C., 20 minutes) working clothes, hood, mask and gloves, and conducted the experiment. During the periods of accommodation and quarantine the experimental animals were accommodated in a polycarbonate-made shoes box-type breeding cage (260W×410L×200H mm) by 4 mice in each cage. During the periods of administration and observation, the experimental animals were accommodated in a wire breeding cage (205W×350 L×175H mm) with one mouse in each cage. During the period of experiments, the breeding cages were discriminated with attaching the labels in which the experiment numbers and the animal numbers were entered. The animals were allowed to freely ingest a radiation-sterilized (25 kGy, Picolab) solid feed for experimental animals as the feed, and tap water, which was sterilized with an autoclave, as the drinking water by means of a water bottle. […]

[2] = tested on: IL-6 reactive STAT3 reporter gene; test: IL-6 reactive STAT3 reporter gene test (pSTAT3-TA-Luc6 luciferase) in HepG2 cells; format: cell-based; settings: Homo sapiens
Description: A pSTAT3-TA-Luc6 construct, which comprises 8 more STAT3 DNA binding sequence copies as compared to pSTAT-3-TA-Luc and thus, enables to better reflect STAT3 reporter gene assay, was prepared. STAT3 DNA binding sequence was amplified using pSTAT3-TA-Luc plasmid (Clontech, Palo Alto, Calif.) as the template, and oligonucleotide ([…]. SEQ ID NO: 1 (containing Kpn I site)) and oligonucleotide ([…] GAAGCAACGTTC (containing Xho I site)) as forward primer and reverse primer, respectively, by means of a thermocycler. The amplified PCR product was cloned, separated, and then inserted into Kpn I/Xho I site of pSTAT3-TA-Luc plasmid.
Human hepatoma cell line, HepG2 cell, was incubated in MEM (Minimal Essential Medium, WelGENE Inc, Daegu, Korea) medium under water-saturated condition at 37° C., 5% CO2. To this medium was added 10% (v/v) fetal bovine serum, streptomycin (100 U/mL) and penicillin (100 U/mL). 6-Well cell culture plate was allowed to grow cells up to 80%, and then the specimen was pre-treated for one hour. Then, the medium was changed into 50 μL of serum-free medium, and the mixed solution of 0.1 μL pSTAT3-TA-Luc6 construct and 0.3 μL lipofectamin reagent was added to each well and then allowed to react for 3 hours to transfect cells with pSTAT3-TA-Luc6 construct. The medium was changed to a fresh medium, and the plate was incubated for 24 hours to transiently transfect cells. The transfected cells were serum-starved with 1% BSA/DMEM, and treated with the samples for one hour and then, after adding IL-6, incubated for 3 hours. The mixture was washed with PBS, shaken for one minute with addition of 50 μL of lysis buffer (promega luciferase assay system). After adding 30-100 μL of luciferase substrate (Promega luciferase assay system), the mixture was measured by a luminometer within 5 minutes.
Among others Compounds 1 and 3 as the materials having high inhibitory effect on IL-6 activity were used at various concentration to measure the degree of inhibitory effect, and the results thereof are as shown in FIGS. 2 and 3.

Compound: CCc1ccc(Nc2nc3cc(NC(=O)c4ccccc4)ccc3o2)cc1 [Compound 3, N-(2-(4-ethylphenylamino)benzo[d]oxazol-5-yl)benzamide]
- Influence on IL-6 induced ERK phosphorylation [1]: did not influence on ERK phosphorylation
- Change in body weight compared to the control group (C57BL/6 female mice; 30 mg/kg intraperitoneally once a day, 5 days, C57BL/6 female mice (FIG. 6)): did not show any change in the weight
- Toxic symptom in appearance (C57BL/6 female mice; after 6 days, C57BL/6 female mice): did not show any toxic symptom in appearance
- IC50 ([2]; HepG2, read-out: IC50 of IL-6 inhibitory activity (STAT3 reporter gene)): 5.8 µM
- inhibition at 20 µg/mL ([2]; HepG2, read-out: Inhibition % of IL-6 reactive STAT3 reporter gene activity, 20 ug/ml of sample, HepG2 cells): > 80%
